ChEMBL document CHEMBL4184098, “Discovery of novel benzo[b]thiophene tetrazoles as non-carboxylate GPR40 agonists” (Bioorg Med Chem Lett, 2018)

Tests used:
[1] = Volume of distribution at steady state in rat at 10 mg/kg, po or 2 mg/kg, iv; format: ADME, organism-based; conditions: in vivo, read-out: Vdss
[2] = Cmax in rat at 10 mg/kg, po; format: ADME, organism-based; parameters: dose 10 mg/kg, route oral; conditions: in vivo
[3] = Oral bioavailability in rat at 10 mg/kg; format: ADME, organism-based; conditions: in vivo
[4] = Retention time of compound by LC-MS/MS analysis; format: physicochemical
[5] = Plasma concentration in Sprague-Dawley rat at 1 mg/kg, po administered 40 mins prior to glucose-challenge measured at 160 mins post last dose during OGTT assay; format: ADME, organism-based
[6] = Plasma concentration in Sprague-Dawley rat at 10 mg/kg, po administered 40 mins prior to glucose-challenge measured at 160 mins post last dose during OGTT assay; format: ADME, organism-based
[7] = Plasma concentration in Sprague-Dawley rat at 10 mg/kg, po administered 40 mins prior to glucose-challenge measured at 95 mins post last dose during OGTT assay; format: ADME, organism-based
[8] = Plasma concentration in Sprague-Dawley rat at 10 mg/kg, po administered 40 mins prior to glucose-challenge measured at 35 mins post last dose during OGTT assay; format: ADME, organism-based
[9] = Plasma concentration in Sprague-Dawley rat at 10 mg/kg, po administered 40 mins prior to glucose-challenge measured at 155 mins post last dose during OGTT assay; format: ADME, organism-based

SMILES | Vd [1] [L/kg] | Cmax [2] [ng/mL] | bioavailability [3] [%] | Retention_time [4] [min] | concentration at 160 min [5] [µM] | concentration at 160 min [6] [µM] | concentration at 95 min [7] [µM] | concentration at 35 min [8] [µM] | concentration at 155 min [9] [µM]
CC#C[C@@H](Cc1nnn[nH]1)c1ccc(OCc2ccc3scc(-c4ccc(OCCCS(C)(=O)=O)cc4C)c3c2)cc1 | 5.1 | 417 | 56.8 |  |  |  |  |  | 
CC#C[C@@H](Cc1nnn[nH]1)c1ccc(OCc2ccc3scc(-c4ccccc4C)c3c2)cc1 | 1.5 | 576 | 43.2 | 26.64 | 0.32 | 1.85 |  |  | 
CC#C[C@@H](Cc1nnn[nH]1)c1ccc(OCc2ccc3sc(C(F)(F)F)c(-c4ccc(OCCOC)cc4C)c3c2)cc1 |  |  |  |  |  |  | 3.9 | 5.66 | 4.41
CC#C[C@@H](Cc1nnn[nH]1)c1ccc(OCc2ccc3scc(-c4ccc(OCC5(C)CS(=O)(=O)C5)cc4C)c3c2)cc1 | 5.9 | 356 | 50.3 |  |  |  |  |  | 
CC#C[C@@H](Cc1nnn[nH]1)c1ccc(OCc2ccc3sc(F)c(-c4ccccc4C)c3c2)cc1 | 2.2 | 1590 | 62.3 |  |  | 3.74 |  |  | 
CC#C[C@@H](Cc1nnn[nH]1)c1ccc(OCc2ccc3sc(Cl)c(-c4ccccc4C)c3c2)cc1 | 0.8 | 4220 | 72 |  |  | 8.09 |  |  | 
CC#C[C@@H](Cc1nnn[nH]1)c1ccc(OCc2ccc3sc(C(F)(F)F)c(-c4ccccc4C)c3c2)cc1 | 1.1 | 2520 | 82.1 |  |  | 7.42 |  |  | 
